Assay results taken from publication PMC6246635 (Frontiers in Physiology, 2018).

Key:
[1] = parameters: method as in Koyani et al., 2017; Lee et al., 2016; He et al., 2009; details: in vitro studies; ref Koyani et al., 2017; Lee et al., 2016; He et al., 2009; cited from earlier work
CaMKII = test: Western blot pCaMKII (T286); format: cell-based, murine; details: HL-1 cells
Protocol: (§1) HL-1 cells (a murine cardiomyocyte cell line, Sigma-Aldrich, Vienna, Austria) were cultured in fibronectin (0.5% [w/v])/gelatin (0.02% [w/v]) coated flasks and maintained in Claycomb medium (Sigma-Aldrich) ([Claycomb et al., 1998]) containing 10% (v/v) fetal bovine serum (FBS, Thermo Fisher Scientific, IL, United States), 0.1 mM norepinephrine, 2 mM L-glutamine, 100 IU/ml penicillin and 100 μg/ml streptomycin (Sigma-Aldrich), and kept at 37°C under 5% CO2, as previously described ([Scheruebel et al., 2014]).
(§2) HL-1 cells or mouse left ventricle (LV) were lysed in ice-cold lysis buffer (containing in mM: HEPES 50, NaCl 150, EDTA 1, Na4P2O7 10, Na3VO4 2, NaF 10, 1% [v/v] Triton X-100, 10% [v/v] glycerol, pH 7.4, Sigma-Aldrich) containing a Protease Phosphatase Inhibitor Cocktail (Thermo Fisher Scientific). Pellets were separated by centrifugation at 13,000 rpm (4°C, 10 min). Protein estimation of whole cell was performed using BCA protein assay kit (Thermo Fisher Scientific). Whole cell protein lysates (50 μg) were added to 10 μl of NuPAGE LDS sample buffer (Invitrogen) containing 2 μl of NuPAGE sample reducing agent (Invitrogen). After heating for 10 min at 70°C, proteins were separated by electrophoresis on NuPAGE 4–12% Bis-Tris gel (Invitrogen) and transferred to nitrocellulose membranes (Invitrogen, 0.2 μm) ([Jain et al., 2015]). Membranes were blocked with 5% (w/v) non-fat milk in Tris-buffered saline containing Tween 20 (TBST, 25°C, 2 h) and incubated with primary antibodies overnight at 4°C. The following primary antibodies (diluted in 5% [w/v] BSA-TBST) were used: phospho-CaMKII (pCaMKII, T286, 1:1000, Abcam, ab32678), phospho-PLB (pPLB, T17, 1:5000, Badrilla, A010-13), DPP8 (1:500, Santa Cruz, sc-376399), DPP9 (1:500, Santa Cruz, sc-271634), CaMKII (1:500, Santa Cruz, sc-9035), and PLB (1:2000, Thermo Fisher Scientific, MA3-922). After washing, the membranes were incubated with HRP-conjugated goat anti-mouse IgG (1:10,000, Cell Signaling, 7076) or goat anti-rabbit IgG (1:10,000, Cell Signaling, 7074) (25°C, 2 h). Immunoreactive bands were visualized using Immobilon Western Chemiluminescent HRP substrate (Merck Millipore, Vienna, Austria) and developed by Bio-Rad ChemiDoc MP Imaging System. For normalization, membranes were stripped with stripping buffer (58.4 g/l NaCl, 7.5 g/l glycine, pH 2.15), blocked and incubated with a primary antibody against glyceraldehyde 3-phosphate dehydrogenase (GAPDH, 1:1000, Santa Cruz, sc-25778). Densitometric evaluation of immunoreactive bands was performed using Image Lab 4.1 software.
(§3) HL-1 cells were transfected with siRNAs (four different constructs) specific for DPP8 or DPP9 (40 nM each, Qiagen), or scrambled negative control siRNA (40 nM si-scr; Allstars negative control siRNA, Qiagen) ([Koyani et al., 2014]). The siRNA transfection was performed using Lipofectamine 3000 (Invitrogen) according to the supplier’s manual. Briefly, HL-1 (50% confluent) were transfected with 1 ml medium (composition of medium is given above, without FBS and antibiotics) containing 2 μl of Lipofectamine 3000 and the respective siRNA for 6 h at 37°C. Transfection medium was replaced with medium (containing FBS and antibiotics) and cells were grown for another 24 h. The mRNA expression levels of silenced genes were measured using qPCR (see above).

[2] = test system: mouse ventricular cardiomyocytes; test: Ca2+ transient (CaT) measurement; format: cell-based; details: 2 μM, 2 h, 1 Hz
Protocol: (§4) Cardiomyocytes were isolated from adult mice (14–18 weeks old, either sex). The experimental procedure and number of used animals were approved by the ethics committee of the Federal Ministry of Science, Research and Economy of the Republic of Austria (BMWF-66.010/0038-V/3b/2018). Mice were euthanized (40 mg/kg ketamine and 10 mg/kg xylazine), hearts were quickly removed and cardiomyocytes were isolated as previously described ([Ackers-Johnson et al., 2016]) using collagenase 2 and 4 (Worthington Biochemical Corporation, NJ, United States). After isolation cardiomyocytes were kept in standard external solution (containing in mM: NaCl 137, KCl 5.4, CaCl2 1.8, MgCl2 1.1, NaHCO3 2.2, NaH2PO4 0.4, HEPES/Na^+ 10, D(+)-glucose 5.6, pH 7.4 adjusted with NaOH). All experiments were performed on the day of isolation.
CaT was assessed by field stimulation (platinum electrode distance: 1 cm; pulse duration: 5 ms; suprathreshold pulse amplitude: 4 V/cm) at a frequency of 1 Hz using a video-based sarcomere length detection system (IonOptix Corporation, MA, United States) at 37°C. Fluorescence intensities were measured at 340 and 380 nm of excitation and at 510 nm of emission wavelengths using a dual excitation light source. The F340/F380 ratio was used as an index of cytosolic Ca^2+ concentration and to calculate CaT relaxation tau (τCaT). Data were analyzed using Clampfit 10.2 (Molecular Devices) and LabChart 7.0 (peak analysis module, ADInstruments Ltd., Oxford, United Kingdom).

[3] = parameters: method as in Green et al., 2015; details: TECOS trial, T2DM patients; ref Green et al., 2015; cited from earlier work
HL-1 cardiomyocytes = test: fluorescence microscopy of fluorescamine adduct uptake; format: cell-based, murine; details: HL-1 cells, drug-fluorescamine 2–2 μM
Protocol: as §1, with “2014]). […] Fluorescence images were captured at excitation/emission wavelengths of 390/470 nm.” for “2014]).”

PKC [4] = test system: PKC; parameters: method as in Hasegawa et al., 2016; details: human endothelial cells; ref Hasegawa et al., 2016; cited from earlier work
PLB = test: Western blot pPLB (T17); format: cell-based, murine; details: HL-1 cells
Protocol: as §1, §2, §3

PKC [5] = test: PKC activity assay in HL-1 cells; format: cell-based, murine
Protocol: as §1, §3
Estimation of active PKC was performed using a PKC kinase activity kit (ADI-EKS-420A, Enzo Life Sciences, NY, United States) according to the manufacturer’s protocol.

[6] = test system: mouse ventricular cardiomyocytes; test: patch clamp action potential recording; format: cell-based; details: 2 μM, 5 min superfusion, 1 Hz
Protocol: as §4
Action potentials (APs) were recorded in the whole cell configuration of the patch clamp technique using Axopatch 200B amplifier (Molecular Devices, CA, United States) and the A/D – D/A converters Digidata 1322A (Molecular Devices). […] Ten consecutive APs were analyzed using LabChart 7.0 (Cardiac action potential analysis module, ADInstruments Ltd., Oxford, United Kingdom).

DPP8 = test system: DPP8; parameters: method as in Lankas et al., 2005; details: ref Lankas et al., 2005; cited from earlier work
DPP9 = test system: DPP9; parameters: method as in Lankas et al., 2005; details: ref Lankas et al., 2005; cited from earlier work
CaMKII and PLB = test: Western blot total CaMKII and PLB expression; format: cell-based, murine; details: HL-1 cells, 2 μM, time course
Protocol: as §1
HL-1 cells or mouse left ventricle (LV) were lysed in ice-cold lysis buffer (containing in mM: HEPES 50, NaCl 150, EDTA 1, Na4P2O7 10, Na3VO4 2, NaF 10, 1% [v/v] Triton X-100, 10% [v/v] glycerol, pH 7.4, Sigma-Aldrich) containing a Protease Phosphatase Inhibitor Cocktail (Thermo Fisher Scientific). Pellets were separated by centrifugation at 13,000 rpm (4°C, 10 min). Protein estimation of whole cell was performed using BCA protein assay kit (Thermo Fisher Scientific). Whole cell protein lysates (50 μg) were added to 10 μl of NuPAGE LDS sample buffer (Invitrogen) containing 2 μl of NuPAGE sample reducing agent (Invitrogen). After heating for 10 min at 70°C, proteins were separated by electrophoresis on NuPAGE 4–12% Bis-Tris gel (Invitrogen) and transferred to nitrocellulose membranes (Invitrogen, 0.2 μm) ([Jain et al., 2015]). […]

[7] = parameters: method as in Udenfriend et al., 1972; details: unbound, aqueous solution; ref Udenfriend et al., 1972; cited from earlier work
PKC [8] = test system: PKC; parameters: method as in Dai et al., 2014; details: THP-1 macrophages; ref Dai et al., 2014; cited from earlier work
[9] = parameters: method as in Onglyza, 2016; details: 5 mg single dose; ref Onglyza, 2016; cited from earlier work
[10] = plasma Cmax after single dose; format: in vivo; details: human, 5 mg single dose, equivalent of 24 ng/ml (Onglyza, 2016), read-out: plasma Cmax, molar equivalent

For `N[C@@H](CC(=O)N1CCn2c(nnc2C(F)(F)F)C1)Cc1cc(F)c(F)cc1F` [sitagliptin], the membrane permeability [1] is given as “significant membrane permeability”, the “effect on pCaMKII expression, time course” value (CaMKII; 2 μM) is given as “failed to inhibit” and the “effect on CaMKII phosphorylation, concentration-dependent” value (CaMKII; up to 10 μM, 5 min) is given as “no effect”. For the same compound, the “CaT relaxation (reciprocal of τCaT)” value [2] was “ineffective”, the “effect on the hospitalization of HF” value [3] was “did not show any effect” and the “cellular uptake and localization (fluorescence)” value (HL-1 cardiomyocytes) was “internalized by cardiomyocytes and localizes in the cytosol”. For the same compound, the “effect on PKC activity” value (PKC [4]) was “ineffective”, the “effect on PLB phosphorylation levels” value (PLB; time course (2 μM) and concentration series (30 min)) was “neither time- (Figure 2F) nor concentration-dependent experiments (Figure 2H) showed an effect” and the “effect on intracellular PKC activity” value (PKC [5]; time course (2 μM) and concentration series (10 min)) was “no effect”. The “action potential duration (APD, 90% repolarization)” value [6] was “not”.
In the case of `N#C[C@@H]1CCCN1C(=O)CNC12CC3CC(CC(O)(C3)C1)C2` [vildagliptin], the membrane permeability [1] is listed as “significant membrane permeability”.
For `CC[C@@H](C)[C@H](N)C(=O)N1Cc2ccccc2C1.Cl` [TC-E 5007], the “reduced CaMKII phosphorylation (T286), time from which observed” value (CaMKII; 2 μM) is given as ≥ 30 min, the “CaT relaxation (reciprocal of τCaT)” value [2] is given as “impaired cardiac relaxation” and the IC50 (DPP8) is given as […]. For the same compound, the “reduced pPLB (T17), time from which observed” value (PLB; 2 μM) was ≥ 60 min, the IC50 (DPP9) was […] and the “total CaMKII and PLB protein levels” value (CaMKII and PLB) was “did not affect”. For the same compound, the “reduced PKC activity, time from which observed” value (PKC [5]; 2 μM) was ≥ 10 min.
For `O=C1OC2(OC=C(c3ccccc3)C2=O)c2ccccc21` (stereo not shown) [fluorescamine], the half-life [7] is listed as 5 to 10 s.
In the case of `N#C[C@@H]1C[C@@H]2C[C@@H]2N1C(=O)[C@@H](N)C12CC3CC(CC(O)(C3)C1)C2` [saxagliptin], the “oxidized low-density lipoprotein-induced pPKC levels” value (PKC [8]) is given as “inhibited”, the “plasma Cmax” value [9] is given as 24 ng/mL and the membrane permeability [1] is given as “significant membrane permeability”. For the same compound, the “reduced CaMKII phosphorylation (T286), time from which observed” value (CaMKII; 2 μM) was ≥ 2.5 min, the “pCaMKII expression in DPP8 knocked down cardiomyocytes” value (CaMKII; 2 μM, 5 min, si-DPP8) was “effectively inhibited” and the “inhibition of CaMKII phosphorylation, concentration from which observed” value (CaMKII; 5 min) was ≥ 200 nM. For the same compound, the “CaT relaxation (reciprocal of τCaT)” value [2] was “impaired cardiac relaxation”, the Cmax [10] was ~76 nM and the “reduced pPLB (T17), time from which observed” value (PLB; 2 μM) was ≥ 15 min. The “efficacy on pPLB expression in DPP8/DPP9 silenced cells” value (PLB; 2 μM, 30 min) was “abolished in DPP9 (but not DPP8) silenced cells”, the “reduced pPLB expression, concentration from which observed” value (PLB; 30 min) was ≥ 200 nM and the “reduced PKC activity, time from which observed” value (PKC [5]; 2 μM) was ≥ 2.5 min. For the same compound, the “efficacy on PKC activity in DPP8/DPP9 silenced cardiomyocytes” value (PKC [5]; 2 μM, 10 min) was “significantly abolished in DPP9 (but not DPP8) silenced cardiomyocytes”, the “reduced PKC activity, concentration from which observed” value (PKC [5]; 10 min) was ≥ 1 µM and the “action potential duration (APD, 90% repolarization)” value [6] was “prolongation of APD”.
